Tests used:
[1] = molecular target: T1, 15-hydroxy-prostaglandin-dehydrogenase (Homo sapiens, UniProt P15428); experiment: inhibition of 15-hydroxy-prostaglandin-dehydrogenase drawn from human placenta, in vitro; format: biochemical
T1 construct: 15-hydroxy-prostaglandin-dehydrogenase drawn from human placenta; from tissue; host or cells: human placenta
T1 sequence (P15428 1-266): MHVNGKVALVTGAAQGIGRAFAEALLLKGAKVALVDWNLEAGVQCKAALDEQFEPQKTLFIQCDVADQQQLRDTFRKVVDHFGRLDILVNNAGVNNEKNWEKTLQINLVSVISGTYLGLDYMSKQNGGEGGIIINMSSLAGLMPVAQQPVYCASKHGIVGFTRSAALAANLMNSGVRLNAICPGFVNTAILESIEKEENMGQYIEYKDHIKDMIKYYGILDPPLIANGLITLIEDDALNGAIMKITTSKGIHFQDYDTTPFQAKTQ
From the text: The compounds of formula (I) furthermore inhibit the use of natural prostaglandins as substrate by the enzyme.

[2] = tested on: rat uterus; experiment: rat uterus test (spasmogenic activity); settings: for ratio Uterus/Ileum / ratio Uterus/Stomach Fundus: ratio of activities relative to PGF2α; for ratio Uterus/Ileum: rat uterus / guinea pig ileum; for ratio Uterus/Stomach Fundus: rat uterus / rat stomach fundus; for spasmogenic activity, Rat Uterus: relative to PGF2α = 1 (conventional value), in vitro, 29° C., oestrogenized rat uteri
From the text: (§1) The same compound (13,14-dehydro-17-cyclohexyl-20,19,18-trinor-PGF2α) was compared with PGF2α and with the olefinic analogue 5c,13t-9α,11α,15S-trihydroxy-20,19,18-trinor-17-cyclohexyl-prosta-5,13-dienoic acid (17-cyclohexyl-20,19,18-trinor-PGF2α) in the following in vitro tests: guinea pig ileum test, rat uterus test, rat stomach fundus. The results are reported in the following Table, wherein to the activity of PGF2 the conventional value of 1 was given in all the tests. The three tests relate to the determination of the spasmogenic activity.
The rat uterus test consisted of a 10 ml thermostatic bath held at 29° C., in which oestrogenized rat uteri under 0.5 g traction were carboxygenated in a Dejalon saline solution. The preparation was left to stabilize for 30 minutes before the compounds were tested. Response was measured using a isotonic frontal lever, long enough to amplify the response 4.5 times.

[3] = tested on: rat stomach fundus; experiment: rat stomach fundus test (spasmogenic activity); settings: relative to PGF2α = 1 (conventional value); in vitro, male Sprague-Dawley rats
From the text: as §1
The rat stomach fundus test was performed in the following manner: male albino rats of the Sprague-Dawley strain weighing 200-250 g were utilized. The stomach fundus strip was prepared according to Vane (J. R. Vane, Brit. J. Pharmacol. 12, 344, (1957)). The strip was suspended in a 10 ml organ bath containing Tyrode solution gassed with a mixture of O2 and CO2 (95:5%). The contractions of the strip were recorded using a isotonic frontal lever as in the preceding tests.

[4] = tested on: pregnant rat; experiment: luteolytic activity in the pregnant rat at the 9th-10th day of pregnancy; format: in vivo; settings: relative to PGF2α = 1 (conventional value)
From the text: The action selectivity of the 13,14-dehydro compounds on the miometrium and on the reproductive apparatus is also proven by the remarkable increase of the luteolytic activity in the pregnant rat at the 9th-10th day of pregnancy. In fact, if the conventional value of 1 is given to the luteolytic activity of PGF2α, the value of 30 is to be given to the luteolytic acitivity of 17-cyclohexyl-20,19,18-trinor-PGF2α, and the value of 200 to the luteolytic activity of 13,14-dehydro-17-cyclohexyl-20,19,18-trinor-PGF2α.

[5] = tested on: rat uterus; experiment: antagonism of PGF2α on the rat uterus; settings: tested against PGF2α
[6] = tested on: guinea pig ileum; experiment: guinea pig ileum test (spasmogenic activity); settings: relative to PGF2α = 1 (conventional value); in vitro, 35° C., Tyrode solution
From the text: as §1
The guinea pig ileum test consisted of a 10 ml thermostatic bath held at 35° C., containing the ileum of a male guinea pig, under 0.5 g traction, carboxygenated in a Tyrode solution; this was left for 30 minutes to stabilize before the compounds were tested. The response was recorded using a isotonic frontal lever, long enough to amplify the response 4.5 times.

Ki ([1]; inhibition with respect to PGE2) [µM] | Ki ([1]; inhibition with respect to PGF2α) [µM] | kind of inhibition ([1]; with respect to PGE2) | kind of inhibition ([1]; with respect to PGF2α) | Compound | ratio Uterus/Ileum [2] | ratio Uterus/Stomach Fundus [2] | spasmogenic activity, Rat Uterus [2] | spasmogenic activity, Rat Stomach Fundus [3] | luteolytic activity [4] | antagonism of PGF2α on the rat uterus [5] | spasmogenic activity, Guinea Pig Ileum [6]
468 | 152 | noncompetitive | partially competitive | O=C(O)CCCC=CCC1C(O)CC(O)C1C#CC(O)CCC1CCCCC1 (stereo not drawn) [5c-9α,11α,15S-trihydroxy-20,19,18-trinor-17-cyclohexyl-prost-5-en-13-ynoic acid] | 91 | 8 | 15.7 | 1.96 | 200 | able to antagonize PGF2α specifically and selectively | 0.17
 |  |  |  | O=C(O)CCCC=CCC1C(O)CC(O)C1C=CC(O)CCC1CCCCC1 (stereo not drawn) [17-cyclohexyl-20,19,18-trinor-PGF2α, 5c,13t-9α,11α,15S-trihydroxy-20,19,18-trinor-17-cyclohexyl-prosta-5,13-dienoic acid] | 5.4 | 1.7 | 3.23 | 1.86 | 30 |  | 0.60
 |  |  |  | CCCCC[C@H](O)/C=C/[C@@H]1[C@@H](C/C=C\CCCC(=O)O)[C@@H](O)C[C@H]1O [PGF2α] | 1 | 1 |  |  | 1 |  | 

Source: patent US4361577A, “ω-Nor-cycloalkyl-13,14-dehydro-prostaglandins and process for their preparation” (Carlo Erba - S.p.A., priority 1974, dated 1982)
